Calls of active or inactive are those of the source. The rule behind the calls is not given here.

The source of these data is ChEMBL document CHEMBL1121781, “Potential antitumor agents. 34. Quantitative relationships between DNA binding and molecular structure for 9-anilinoacridines substituted in the anilino ring” (J Med Chem, 1981).

For data set [1], the system named is Nucleic Acid.
Description: Association constant for binding to poly [d(G-C)]
In data set [2] the test system is Nucleic Acid. This is another data set of the same source.
Description: Association constant for binding to poly [d(A-T)]
Data set [3] concerns Calf thymus DNA. As to conditions: Bos taurus.
Description: (§1) Inhibitory concentration against ethidium binding to DNA
In data set [4] the test system is Calf thymus DNA. As to conditions: Bos taurus. The source holds these as a separate data set.
Description: as §1

Description for Mus musculus: Maximum percent increase in life span of mice
Description for physchem: Ionisation constant (pKa)

With `Cc1ccccc1Nc1c2ccccc2nc2ccccc12`, the pKa in “physchem” turned out to be 7.76. The results for the Log K with Nucleic Acid [1] and in the data set on Nucleic Acid [2] were 5.23 and 5.25, respectively. Also, in the data set with Calf thymus DNA [3], the C50 was 67 µM.

In turn, `Oc1cccc(Nc2c3ccccc3nc3ccccc23)c1` came in with a pKa in “physchem” of 7.3. Also, the Log K stood at 6.1 in the data set on Nucleic Acid [1] and 6 with Nucleic Acid [2]. The same compound displayed a C50 in the data set on Calf thymus DNA [4] of 8.2 µM. For the same compound, the ILS result in the data set listed under Mus musculus is “inactive”.
